Assay results taken from ChEMBL document CHEMBL5712891, “Inhibition of BET bromodomain-dependent XIAP and FLIP expression sensitizes KRAS-mutated NSCLC to pro-apoptotic agents” (Cell Death Dis, 2016).
The source made the active and inactive calls. The calls are words filed in the database; no cut-off is given here.

Experiments:
DV-90 [1] = experiment: Induction of cell cycle arrest in human DV-90 cells assessed as accumulation of cells at S phase at 1 uM for 24 hrs by Click-iT EdU Alexa Fluor 647 flow cytometric assay kit analysis (reference value: 30%); format: functional
NCI-H1373 [2] = experiment: Induction of cell cycle arrest in human NCI-H1373 cells assessed as accumulation of cells at G0/G1 phase at 1 uM for 24 hrs by Click-iT EdU Alexa Fluor 647 flow cytometric assay kit analysis (reference value: 48%); format: functional
NCI-H460 [3] = experiment: Induction of cell cycle arrest in human NCI-H460 cells assessed as accumulation of cells at G0/G1 phase at 0.25 uM for 24 hrs by Click-iT EdU Alexa Fluor 647 flow cytometric assay kit analysis (reference value: 45%); format: functional
A549 [4] = experiment: Induction of cell cycle arrest in human A549 cells assessed as accumulation of cells at S phase at 1 uM for 24 hrs by Click-iT EdU Alexa Fluor 647 flow cytometric assay kit analysis (reference value: 35%); format: functional
A549 [5] = experiment: Induction of cell cycle arrest in human A549 cells assessed as accumulation of cells at G0/G1 phase at 1 uM for 24 hrs by Click-iT EdU Alexa Fluor 647 flow cytometric assay kit analysis (reference value: 61%); format: functional
NCI-H1373 [6] = experiment: Induction of cell cycle arrest in human NCI-H1373 cells assessed as accumulation of cells at G2/M phase at 0.5 uM for 24 hrs by Click-iT EdU Alexa Fluor 647 flow cytometric assay kit analysis (reference value: 13%); format: functional
NCI-H1373 [7] = experiment: Induction of cell cycle arrest in human NCI-H1373 cells assessed as accumulation of cells at S phase at 0.1 uM for 24 hrs by Click-iT EdU Alexa Fluor 647 flow cytometric assay kit analysis (reference value: 45%); format: functional
NCI-H1373 [8] = experiment: Induction of cell cycle arrest in human NCI-H1373 cells assessed as accumulation of cells at G0/G1 phase at 0.1 uM for 24 hrs by Click-iT EdU Alexa Fluor 647 flow cytometric assay kit analysis (reference value: 40%); format: functional
DV-90 [9] = experiment: Induction of apoptosis in human DV-90 cells assessed as late apoptotic cells at 0.5 uM for 24 hrs by annexin V-PI staining based flow cytometric analysis (reference value: 11.4%); format: functional
A549 [10] = experiment: Induction of apoptosis in human A549 cells assessed as necrotic cells at 0.5 uM for 24 hrs by annexin V-PI staining based flow cytometric analysis (reference value: 1.3%); format: functional
A549 [11] = experiment: Induction of apoptosis in human A549 cells assessed as viable cells at 2.5 uM for 24 hrs by annexin V-PI staining based flow cytometric analysis (reference value: 96%); format: functional; conditions: read-out: Activity
A549 [12] = experiment: Induction of apoptosis in human A549 cells assessed as early apoptotic cells at 2.5 uM for 24 hrs by annexin V-PI staining based flow cytometric analysis (reference value: 0.4%); format: functional
A549 [13] = experiment: Induction of apoptosis in human A549 cells assessed as late apoptotic cells at 2.5 uM for 24 hrs by annexin V-PI staining based flow cytometric analysis (reference value: 2.3%); format: functional
NCI-H460 [14] = experiment: Induction of apoptosis in human NCI-H460 cells assessed as early apoptotic cells at 0.5 uM for 24 hrs by annexin V-PI staining based flow cytometric analysis (reference value: 0.2%); format: functional
NCI-H460 [15] = experiment: Induction of apoptosis in human NCI-H460 cells assessed as viable cells at 2.5 uM for 24 hrs by annexin V-PI staining based flow cytometric analysis (reference value: 94%); format: functional; conditions: read-out: Activity
NCI-H1373 [16] = experiment: Downregulation of c-MYC protein level in human NCI-H1373 cells 1 uM by Western blot analysis; format: functional, cell-based; conditions: time <= 24.0 hrs, TDE = time-dependent effect
NCI-H441 [17] = experiment: Downregulation of c-MYC mRNA expression level in human NCI-H441 cells at 0.1 to 1 uM for 24 hrs by qRT-PCR analysis; format: functional, cell-based; conditions: dose 0.1-1 µM
NCI-H1373 [18] = experiment: Downregulation of XIAP mRNA expression level in human NCI-H1373 cells at 0.1 to 1 uM for 24 hrs by qRT-PCR analysis; format: functional, cell-based; conditions: dose 0.1-1 µM
LCLC-97TM1 [19] = experiment: Downregulation of XIAP mRNA expression level in human LCLC-97TM1 cells at 0.1 to 1 uM for 24 hrs by qRT-PCR analysis; format: functional, cell-based; conditions: dose 0.1-1 µM
LCLC-97TM1 [20] = experiment: Downregulation of FLIP mRNA expression level in human LCLC-97TM1 cells at 0.1 to 1 uM for 24 hrs by qRT-PCR analysis; format: functional, cell-based; conditions: dose 0.1-1 µM
NCI-H441 [21] = experiment: Downregulation of FLIP mRNA expression level in human NCI-H441 cells at 0.1 to 1 uM for 24 hrs by qRT-PCR analysis; format: functional, cell-based; conditions: dose 0.1-1 µM
DV-90 [22] = experiment: Downregulation of XIAP protein expression level in human DV-90 cells at 1 uM for 24 hrs by […] analysis; format: functional, cell-based
NCI-H1373 [23] = experiment: Downregulation of XIAP protein expression level in human NCI-H1373 cells at 1 uM for 24 hrs by […] analysis; format: functional, cell-based
NCI-H23 = experiment: Downregulation of XIAP protein expression level in human NCI-H23 cells at 1 uM for 24 hrs by […] analysis; format: functional, cell-based
NCI-H2347 = experiment: Downregulation of XIAP protein expression level in human NCI-H2347 cells at 1 uM for 24 hrs by […] analysis; format: functional, cell-based
A549 [24] = experiment: Downregulation of c-MYC protein expression level in human A549 cells at 1 uM for 24 hrs by […] analysis; format: functional, cell-based
NCI-H1373 [25] = experiment: Induction of TRAIL dependent apoptosis in human NCI-H1373 cells assessed as PARP cleavage by Western blot analysis; format: functional, cell-based
NCI-H1373 [26] = experiment: Antiproliferative activity against human NCI-H1373 cells at 500 to 2500 nM in presence of TNF by cell titre glo assay; format: functional, cell-based; conditions: dose 500-2500 nM
A549 [27] = experiment: Induction of apoptosis in human A549 cells assessed as late apoptotic cells at 1 uM by annexin V-PI based flow cytometric analysis (reference value: 2.5%); format: functional
A549 [28] = experiment: Antitumor activity against human A549 cells assessed as test to control tumor ratio at 80 mg/kg, ip for 28 days relative to control; format: functional; conditions: time 28 day
A549 [29] = experiment: Antitumor activity against human A549 cells assessed as test to control tumor ratio administered at 80 mg/kg, ip for 7 days along with cisplatin for 5 days follwed by compound treatment for 14 days relative to control; format: functional; conditions: time 7 day
A549 [30] = experiment: Induction of apoptosis in human A549 cells assessed as late apoptotic cells at 2.5 uM for 24 hrs by annexin V-PI staining based flow cytometric analysis (reference value: 1.2%); format: functional
A549 [31] = experiment: Induction of apoptosis in human A549 cells assessed as necrotic cells at 2.5 uM for 24 hrs by annexin V-PI staining based flow cytometric analysis (reference value: 0.9%); format: functional
DV-90 [32] = experiment: Induction of apoptosis in human DV-90 cells assessed as necrotic cells at 0.5 uM for 48 hrs by annexin V-PI staining based flow cytometric analysis (reference value: 8.4%)

Molecule CCNC(=O)C[C@@H]1N=C(c2ccc(Cl)cc2)c2cc(OC)ccc2-n2c(C)nnc21 [MOLIBRESIB] has an Activity (DV-90 [1]) of 22%, an Activity (NCI-H1373 [2]) of 76% and an Activity (NCI-H460 [3]) of 43%.
In the case of Cc1sc2c(c1C)C(c1ccc(Cl)cc1)=N[C@@H](CC(=O)OC(C)(C)C)c1nnc(C)n1-2, the Activity (A549 [4]) is reported as 32%, the Activity (A549 [5]) is reported as 64% and the Activity (NCI-H1373 [6]) is reported as 22%. It also gave an Activity (NCI-H1373 [7]) of 36%, an Activity (NCI-H1373 [8]) of 44% and an Activity (DV-90 [9]) of 10.7%. For the same molecule, the Activity (A549 [10]) was 1.2%, the viability at 2.5 µM (A549 [11]) was 97% and the Activity (A549 [12]) was 0.2%. It also gave an Activity (A549 [13]) of 1.8%, an Activity (NCI-H460 [14]) of 0.2% and a viability at 2.5 µM (NCI-H460 [15]) of 90.4%. The Activity (NCI-H1373 [16]) was “Tde”, the Activity (NCI-H441 [17]) was “Active” and the Activity (NCI-H1373 [18]) was “Active”. The Activity (LCLC-97TM1 [19]) was “Active”, the Activity (LCLC-97TM1 [20]) was “Active” and the Activity (NCI-H441 [21]) was “Active”. For the same molecule, the Activity (DV-90 [22]) was “Active”, the Activity (NCI-H1373 [23]) was “Active” and the Activity (NCI-H23) was “Active”. The Activity (NCI-H2347) was “Active”, the Activity (A549 [24]) was “Active” and the Activity (NCI-H1373 [25]) was “Active”. The Activity (NCI-H1373 [26]) was “Active”, the Activity (A549 [27]) was 1.2% and the T/C (A549 [28]) was 60%. For the same molecule, the T/C (A549 [29]) was 41%.
Cc1sc2c(c1C)C(c1ccc(Cl)cc1)=N[C@@H](CC(=O)Nc1ccc(O)cc1)c1nnc(C)n1-2 [BIRABRESIB] was tested, and the Activity (A549 [30]) was 1.5%, the Activity (A549 [31]) was 1.1% and the Activity (DV-90 [32]) was 27.6%.
